Holding throughout (experiment): SelectScreen Kinase Profiling, single point inhibition and IC50 for off-target kinases
Common to all, as to type: biochemical

Assay [1] has as its target off-target kinases (Homo sapiens, UniProt P07332). The note with it: FES (FPS), ZLYTE, ATP Km app.
In assay [2] the target is off-target kinases (Homo sapiens, UniProt P49674).
For assay [3], the target named is off-target kinases (Homo sapiens, UniProt P42356). The note with it: PI4KA (PI4K alpha), Adapta, ATP 10.
Sequence of off-target kinases (Homo sapiens, UniProt P42356) (P42356 whole entry): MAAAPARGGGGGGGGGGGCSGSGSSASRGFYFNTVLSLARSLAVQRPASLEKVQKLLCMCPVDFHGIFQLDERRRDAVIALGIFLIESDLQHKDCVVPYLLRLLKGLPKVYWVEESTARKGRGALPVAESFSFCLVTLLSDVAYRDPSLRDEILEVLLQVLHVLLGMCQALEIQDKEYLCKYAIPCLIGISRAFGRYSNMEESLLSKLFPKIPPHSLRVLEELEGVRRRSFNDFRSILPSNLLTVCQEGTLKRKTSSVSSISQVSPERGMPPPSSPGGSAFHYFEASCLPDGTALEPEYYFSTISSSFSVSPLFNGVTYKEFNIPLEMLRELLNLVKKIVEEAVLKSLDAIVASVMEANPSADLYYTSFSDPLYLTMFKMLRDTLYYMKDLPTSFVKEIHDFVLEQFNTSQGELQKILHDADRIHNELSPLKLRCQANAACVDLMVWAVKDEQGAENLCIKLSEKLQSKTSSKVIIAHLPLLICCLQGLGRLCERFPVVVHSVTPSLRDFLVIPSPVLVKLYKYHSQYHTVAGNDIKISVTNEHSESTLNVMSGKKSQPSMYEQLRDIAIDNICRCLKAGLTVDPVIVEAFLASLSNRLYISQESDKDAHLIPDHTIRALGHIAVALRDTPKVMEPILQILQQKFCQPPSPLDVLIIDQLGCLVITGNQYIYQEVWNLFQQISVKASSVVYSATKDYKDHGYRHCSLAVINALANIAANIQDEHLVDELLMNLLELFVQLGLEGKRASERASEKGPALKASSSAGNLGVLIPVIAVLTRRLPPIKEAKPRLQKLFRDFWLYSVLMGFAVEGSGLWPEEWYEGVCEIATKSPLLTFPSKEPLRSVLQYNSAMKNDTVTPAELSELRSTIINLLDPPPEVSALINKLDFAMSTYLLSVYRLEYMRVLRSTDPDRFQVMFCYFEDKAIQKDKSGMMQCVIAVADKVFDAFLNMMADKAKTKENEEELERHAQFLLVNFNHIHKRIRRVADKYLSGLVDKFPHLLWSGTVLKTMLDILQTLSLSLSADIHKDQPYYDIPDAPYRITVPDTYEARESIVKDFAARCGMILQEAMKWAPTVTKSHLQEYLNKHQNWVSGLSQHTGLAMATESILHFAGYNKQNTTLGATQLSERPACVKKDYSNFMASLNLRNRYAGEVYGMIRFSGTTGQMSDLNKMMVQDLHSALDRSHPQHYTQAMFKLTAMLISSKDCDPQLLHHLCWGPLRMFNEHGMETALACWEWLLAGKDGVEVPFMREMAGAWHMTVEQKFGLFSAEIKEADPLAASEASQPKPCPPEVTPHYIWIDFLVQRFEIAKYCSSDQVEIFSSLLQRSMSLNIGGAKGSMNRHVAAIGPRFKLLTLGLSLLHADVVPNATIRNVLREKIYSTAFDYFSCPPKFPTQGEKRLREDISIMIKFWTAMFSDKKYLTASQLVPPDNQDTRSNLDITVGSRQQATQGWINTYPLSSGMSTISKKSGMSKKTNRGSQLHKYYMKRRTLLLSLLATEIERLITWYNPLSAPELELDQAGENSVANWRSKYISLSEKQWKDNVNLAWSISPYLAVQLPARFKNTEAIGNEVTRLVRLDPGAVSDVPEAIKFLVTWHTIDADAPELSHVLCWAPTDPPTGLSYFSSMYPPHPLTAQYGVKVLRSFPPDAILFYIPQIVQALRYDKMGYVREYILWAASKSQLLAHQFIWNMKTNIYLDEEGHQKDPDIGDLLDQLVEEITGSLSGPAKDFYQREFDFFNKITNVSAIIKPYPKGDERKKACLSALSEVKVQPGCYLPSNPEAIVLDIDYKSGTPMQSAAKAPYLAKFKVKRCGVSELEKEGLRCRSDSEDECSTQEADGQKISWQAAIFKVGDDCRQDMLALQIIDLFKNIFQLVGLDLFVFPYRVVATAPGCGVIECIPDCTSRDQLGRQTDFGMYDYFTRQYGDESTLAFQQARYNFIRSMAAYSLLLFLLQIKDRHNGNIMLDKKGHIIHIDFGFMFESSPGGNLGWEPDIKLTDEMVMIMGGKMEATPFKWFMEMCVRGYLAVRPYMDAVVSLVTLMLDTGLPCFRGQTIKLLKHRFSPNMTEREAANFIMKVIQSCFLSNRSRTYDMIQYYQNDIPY
Assay [4] has as its target T1, off-target kinases (Homo sapiens, UniProt P42681).
T1 sequence (P42681 1-527): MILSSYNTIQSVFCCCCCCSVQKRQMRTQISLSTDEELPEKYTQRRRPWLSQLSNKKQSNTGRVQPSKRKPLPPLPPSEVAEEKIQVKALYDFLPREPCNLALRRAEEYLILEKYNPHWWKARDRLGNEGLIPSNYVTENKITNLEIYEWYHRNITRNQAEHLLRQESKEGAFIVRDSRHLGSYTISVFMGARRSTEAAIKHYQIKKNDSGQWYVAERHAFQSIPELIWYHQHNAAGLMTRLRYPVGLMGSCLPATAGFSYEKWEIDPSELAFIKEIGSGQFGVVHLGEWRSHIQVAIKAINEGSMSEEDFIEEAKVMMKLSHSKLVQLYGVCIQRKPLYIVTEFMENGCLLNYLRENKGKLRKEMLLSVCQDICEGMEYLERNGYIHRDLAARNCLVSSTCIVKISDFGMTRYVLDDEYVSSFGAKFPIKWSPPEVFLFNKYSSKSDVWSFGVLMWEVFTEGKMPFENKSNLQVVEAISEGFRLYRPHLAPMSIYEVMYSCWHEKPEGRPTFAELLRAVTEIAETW
The note with it: TXK, ZLYTE, ATP Km app.

Like-named read-outs stand apart in the source and are kept apart here.

Sequence of off-target kinases (Homo sapiens, UniProt P07332) (P07332 whole entry): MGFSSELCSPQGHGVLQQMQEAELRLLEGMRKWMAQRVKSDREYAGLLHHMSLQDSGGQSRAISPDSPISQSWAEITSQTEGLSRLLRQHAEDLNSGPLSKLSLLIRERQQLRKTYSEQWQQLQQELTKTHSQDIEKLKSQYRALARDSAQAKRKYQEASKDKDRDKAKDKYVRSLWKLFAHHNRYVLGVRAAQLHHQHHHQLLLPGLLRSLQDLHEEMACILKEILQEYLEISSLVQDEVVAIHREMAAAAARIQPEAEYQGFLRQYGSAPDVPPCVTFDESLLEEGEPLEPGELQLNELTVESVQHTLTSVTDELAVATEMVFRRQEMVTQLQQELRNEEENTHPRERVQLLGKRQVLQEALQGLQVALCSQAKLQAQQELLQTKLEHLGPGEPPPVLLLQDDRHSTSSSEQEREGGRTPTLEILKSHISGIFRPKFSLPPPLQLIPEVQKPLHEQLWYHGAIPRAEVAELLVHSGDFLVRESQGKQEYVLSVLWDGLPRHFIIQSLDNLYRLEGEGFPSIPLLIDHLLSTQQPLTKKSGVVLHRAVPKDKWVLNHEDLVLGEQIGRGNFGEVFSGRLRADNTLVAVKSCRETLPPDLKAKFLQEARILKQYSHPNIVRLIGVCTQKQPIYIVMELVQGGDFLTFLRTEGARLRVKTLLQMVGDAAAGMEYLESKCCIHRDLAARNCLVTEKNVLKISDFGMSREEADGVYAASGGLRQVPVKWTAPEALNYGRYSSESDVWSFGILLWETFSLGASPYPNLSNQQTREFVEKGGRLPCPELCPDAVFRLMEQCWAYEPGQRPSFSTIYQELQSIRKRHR
Sequence of off-target kinases (Homo sapiens, UniProt P49674) (P49674 whole entry): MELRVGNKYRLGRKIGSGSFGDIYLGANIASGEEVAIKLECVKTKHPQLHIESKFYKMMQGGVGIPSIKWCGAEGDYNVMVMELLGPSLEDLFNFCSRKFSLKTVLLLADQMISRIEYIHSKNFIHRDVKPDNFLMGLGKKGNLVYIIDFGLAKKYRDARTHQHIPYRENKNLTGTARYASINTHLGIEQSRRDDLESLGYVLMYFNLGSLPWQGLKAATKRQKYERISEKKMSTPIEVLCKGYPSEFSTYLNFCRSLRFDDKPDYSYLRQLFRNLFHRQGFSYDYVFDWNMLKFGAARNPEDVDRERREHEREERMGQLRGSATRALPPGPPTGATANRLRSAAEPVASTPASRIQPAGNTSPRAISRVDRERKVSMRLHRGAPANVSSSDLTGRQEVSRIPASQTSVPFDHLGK

By inhibition is commonly meant the relative decrease from the control value, in per cent. Turning to `N#Cc1cc(-c2ncnc(Nc3ccc(N4CCN(C5COC5)CC4)cc3)n2)ccc1OC1CCOCC1` [Compound 1, 5-(4-((4-(4-(oxetan-3-yl)piperazin-1-yl)phenyl)amino)-1,3,5-triazin-2-yl)-2-((tetrahydro-2H-pyran-4-yl)oxy)benzonitrile], the inhibition was 9% on off-target kinases [1] (read-out: % Inhibition 1); 7% on off-target kinases [1] (read-out: % Inhibition 2); 8% on off-target kinases [1] (read-out: % Inhibition Avg); 4% at off-target kinases [2] (CSNK1E (CK1 epsilon), ZLYTE, ATP Km app, read-out: % Inhibition 2); 1% on off-target kinases [2] (CSNK1E (CK1 epsilon), ZLYTE, ATP Km app, read-out: % Inhibition Avg); -2% on off-target kinases [2] (read-out: % Inhibition 1). Also, the inhibition at off-target kinases [3] (read-out: % Inhibition 1) was 3%; on off-target kinases [3] (read-out: % Inhibition 2), -3%; on off-target kinases [3] (read-out: % Inhibition Avg) it was 0%; on off-target kinases [4] (read-out: % Inhibition 1), 27%; at off-target kinases [4] (read-out: % Inhibition 2), 36%; at off-target kinases [4] (read-out: % Inhibition Avg) it was 31%.

The values above are taken from patent US11572590B2, “Methods for evaluating tumor cell spheroids using 3D microfluidic cell culture device” (Dana-Farber Cancer Institute, Inc., priority 2017, dated 2023).
